The values below come from ChEMBL document CHEMBL1157993, “Structure-antimutagenic activity relationship study of plicatin B” (J Nat Prod, 1999).

As usually defined, the inhibition is the change of the read-out against control, counted positive when it falls.

The test system of data set [1] is Salmonella typhimurium. As to the kind of experiment: Antimutagenic activity in Salmonella Typhimurium TA100 assessed as inhibition of ethyl methanesulfonate-induced mutation at 3.9 uM treated for 30 mins and measured after 2 days by modified Ames test. The format is functional, Salmonella enterica subsp. enterica serovar Typhimurium. As to conditions: Salmonella enterica. (The Ames test uses bacterial strains that need an amino acid and regain growth without it when mutated back.)

In data set [2] the test system is Salmonella typhimurium. As to the kind of experiment: Antimutagenic activity in Salmonella Typhimurium TA100 assessed as inhibition of ethyl methanesulfonate-induced mutation at 7.8 uM treated for 30 mins and measured after 2 days by modified Ames test. As to conditions: Salmonella enterica. The format is functional, Salmonella enterica subsp. enterica serovar Typhimurium.

Data set [3] concerns Salmonella typhimurium. Briefly: Antimutagenic activity in Salmonella Typhimurium TA100 assessed as inhibition of ethyl methanesulfonate-induced mutation at 125 uM treated for 30 mins and measured after 2 days by modified Ames test. As to conditions: Salmonella enterica. The format is functional, Salmonella enterica subsp. enterica serovar Typhimurium.
Data set [4] has as its system Salmonella typhimurium. Briefly: Antimutagenic activity in Salmonella Typhimurium TA100 assessed as inhibition of ethyl methanesulfonate-induced mutation at 25 ug/mL treated for 30 mins and measured after 2 days by modified Ames test. As to conditions: Salmonella enterica. The format is functional, Salmonella enterica subsp. enterica serovar Typhimurium.
Data set [5] is described as follows: Cytotoxicity against Salmonella Typhimurium TA100 assessed as maximun non-toxic concentrations after 15 hrs […]. The format is organism-based. As to conditions: salmonella enterica subsp. enterica serovar typhimurium, Salmonella Typhimurium TA100 cells; read-out: Activity. In general terms: ELISA stands for enzyme-linked immunosorbent assay.
Data set [6] has as its system Salmonella typhimurium. Briefly: Antimutagenic activity in Salmonella Typhimurium TA100 assessed as inhibition of ethyl methanesulfonate-induced mutation at 31.3 uM treated for 30 mins and measured after 2 days by modified Ames test. The format is functional, Salmonella enterica subsp. enterica serovar Typhimurium. As to conditions: Salmonella enterica.
In data set [7] the test system is Salmonella typhimurium. Briefly: Antimutagenic activity in Salmonella Typhimurium TA100 assessed as inhibition of ethyl methanesulfonate-induced mutation at 82.5 uM treated for 30 mins and measured after 2 days by modified Ames test. The format is functional, Salmonella enterica subsp. enterica serovar Typhimurium. As to conditions: Salmonella enterica.
Data set [8] has as its system Salmonella typhimurium. Briefly: Antimutagenic activity in Salmonella Typhimurium TA100 assessed as inhibition of ethyl methanesulfonate-induced mutation at 3.9 to 125 uM treated for 30 mins and measured after 2 days by modified Ames test. The format is functional, Salmonella enterica subsp. enterica serovar Typhimurium.
Data set [9] has as its system Salmonella typhimurium. As to the kind of experiment: Antimutagenic activity in Salmonella Typhimurium TA100 assessed as inhibition of ethyl methanesulfonate-induced mutation at 15.6 ug/mL treated for 30 mins and measured after 2 days by modified Ames test. As to conditions: Salmonella enterica. The format is functional, Salmonella enterica subsp. enterica serovar Typhimurium.

In the case of `O=C(O)/C=C/c1ccc(O)cc1` [COUMARIC ACID], the inhibition at 3.9 µM with Salmonella typhimurium [1] was 11.2%. Further, the inhibition at 7.8 µM with Salmonella typhimurium [2] turned out to be 13.6%. Besides, the inhibition at 125 µM in the data set with Salmonella typhimurium [3] was 49.8%.
Take `COC(=O)/C=C/c1ccc(OC)c(CC=C(C)C)c1` [PALICATIN B METHYL ETHER]: the inhibition at 3.9 µM in the data set with Salmonella typhimurium [1] was 13.2%. In addition, the inhibition at 7.8 µM in the data set with Salmonella typhimurium [2] was 21.5%.
Turning to `O=C/C=C/c1ccccc1` [CINNAMALDEHYDE], in the data set with Salmonella typhimurium [4], the inhibition at 25 µg/mL is 30%. Moreover, the MNTC at 15 h in data set [5] amounted to 25 µg/mL.
As for `COC(=O)/C=C/c1ccc(O)c(CC=C(C)C)c1` [PLICATIN B], the inhibition at 3.9 µM in the data set with Salmonella typhimurium [1] is 25.4%. The inhibition at 7.8 µM with Salmonella typhimurium [2] was 30.2%.
With `CC(C)=CCc1cc(/C=C/CO)ccc1O`, the inhibition at 3.9 µM in the data set on Salmonella typhimurium [1] was determined as 20.2%. Also, the inhibition at 7.8 µM in the data set on Salmonella typhimurium [2] was determined as 27.1%. Also, the inhibition at 31.3 µM in the data set on Salmonella typhimurium [6] is 36.8%.
`COC(=O)/C=C/c1ccc(O)cc1` [METHYL P-HYDROXYCINNAMATE]: in the data set with Salmonella typhimurium [1], the inhibition at 3.9 µM turned out to be 0%. In addition, the inhibition at 7.8 µM in the data set on Salmonella typhimurium [2] amounted to 0.9%. Besides, the inhibition at 82.5 µM in the data set on Salmonella typhimurium [7] came to 7.6%.
For the molecule `COC(=O)CCc1ccc(O)cc1` [4-HYDROXYHYDROCINNAMIC ACID METHYL ESTER], in the data set with Salmonella typhimurium [8], the “inhibition (INH)” value turned out to be 0%.
Turning to `COC(=O)CCc1ccc(O)c(CC=C(C)C)c1`, in the data set on Salmonella typhimurium [1], the inhibition at 3.9 µM amounted to 25.2%. For the same molecule, the inhibition at 7.8 µM in the data set on Salmonella typhimurium [2] came out at 38.5%. Besides, in the data set with Salmonella typhimurium [6], the inhibition at 31.3 µM is 46.8%. In addition, the MNTC at 15 h in data set [5] is 31.3 µM.
In the case of `CC(C)=CCc1cc(/C=C/C(=O)O)ccc1O` [DRUPANIN], the inhibition at 3.9 µM with Salmonella typhimurium [1] amounted to 0.3%. Further, the inhibition at 7.8 µM in the data set with Salmonella typhimurium [2] stood at 0.6%. Besides, in the data set with Salmonella typhimurium [9], the inhibition at 15.6 µg/mL worked out at 12%.
